# From EP0678516B1, “Preparation of 2-bromo-5-(2-bromo-2-nitrovinyl)-furan and its use as microcide” (CENTRO DE BIOACTIVOS QUIMICOS DE LA UNIVERSIDAD CENTRAL DE …, priority 1994, dated 1995)
# What was measured:
# [1] = tested on: Bovine infectious queratoconjunctivitis; assay: Clinical test, external treatment of eye infections in animals; type: in vivo; conditions: Cows (PE), small scale controlled clinical test
# Excerpt: (§1) The effectiveness of the active principle against bacterial eye diseases in: 9435 animal eyes affected with queratoconjunctivitis; 8093 of cattle and 1342 of other species (sheep, rabbits, dogs, horses, pigs, cats, guinea-pigs and birds).
# (§2) In some cases the result of the medicament was compared with others habitually used for these treatments.
# (§3) Read: 1 = Bovine infectious queratoconjunctivitis (PE) = small scale or clinical test in conditions controlled on a small scale (U) = ointment (I) = injectable n = number of eyes treated P± = Average of treatment for clinical recuperation (weighted average) Rc = clinical recuperation 2 = conjunctivitis 3 = Querratitis 4= Queratoconjunctivitis 5= Blefaritis 6= general eye infection 7= clinical extension or test compared in conditions of extension (*) = Massive application in therapeutic survey in the new different animal species (G-1) = refers to 2-bromo-5-(2-bromo-2-nitro-vinyl)-furan
# [2] = tested on: conjunctivitis and Blefaritis; assay: as above; type: in vivo; conditions: Rabbits
# Excerpt: as §1, §2, §3
# [3] = tested on: conjunctivitis, Querratitis, Queratoconjunctivitis; assay: as above; type: in vivo; conditions: Dogs
# Excerpt: as §1, §2, §3
# [4] = tested on: Bovine infectious queratoconjunctivitis; assay: Clinical test, external treatment of eye infections in animals (extension); type: in vivo; conditions: Cattle (E)
# Excerpt: as §1, §2, §3
# [5] = tested on: septic puerperal metritis; assay: Treatment of septic puerperal metritis; type: in vivo, female oxes; conditions: G-1 1.5% oil solution intrauterine, Tetracycline abdominal aorta route
# Method: The treatment consisted in applying 40 ml for three consecutive days at intervals of 24 hours from the diagnosis of the disease process. Treatment was compared with intrasoric tetracyclin.
# [6] = tested on: Streptococcus agalactiae and Staphylococcus aureus; assay: Intracisternal treatment of clinical mastitis; type: in vivo, femal oxes
# Excerpt: The active principle in a concentration of 0.1 % is applied by intracisternal route daily for three consecutive days in femal oxes clinically affected by mastitis of morbid catarrh purulen course types, in which the isolated micro-organisms were Streptococcus agalactiae and Staphylococcus aureus. As a control medicament the mammary infusion of neomicine was used.
compound,measurement,setting,value
"O=C(N[C@H](CO)[C@H](O)c1ccc([N+](=O)[O-])cc1)C(Cl)Cl [Chloran-fenicol-(I), Chloran-fenicol]","P± (Average of treatment for clinical recuperation, weighted average)",[1],3.1ab
same,Re (clinical recuperation),[1],80.6ba %
"O=C(N[C@H](CO)[C@H](O)c1ccc([N+](=O)[O-])cc1)C(Cl)Cl [Chloran-fenicol-(U), Chloran-fenicol]","P± (Average of treatment for clinical recuperation, weighted average)",[2],3.2a
same,"P± (Average of treatment for clinical recuperation, weighted average)",[3],7.3b
same,Re (clinical recuperation),[3],81.5a %
same,"P± (Average of treatment for clinical recuperation, weighted average)",[4],3.4a
same,Re (clinical recuperation),[4],86.6a %
"CN(C)[C@@H]1C(O)=C(C(N)=O)C(=O)[C@@]2(O)C(O)=C3C(=O)c4c(O)cccc4[C@@](C)(O)[C@H]3C[C@@H]12 [Tetracycline, reference compound]",Recuperated n,"[5]; 27 females, 19 females",13
same,IIA (Artificial insemination index),[5],1.78± 1.99b
same,Recuperated %,[5],68.4%
same,T-R (Average of treatment interval of clinical recuperation),[5],39 days
same,IIA (Artificial insemination index),[5]; listed as tetracycline,1.78 ± 1.99
neomicine [reference compound],Recuperated n (affected parts),"[6]; G-I 0.1% intracisternal daily for three days (57 parts), neomicine mammary infusion (12 parts)",12
same,Recuperated % (clinical recuperation of the affected parts),"[6]; G-I 0.1% intracisternal daily for three days, neomicine mammary infusion",100%
